Experimental data published in US20040034002A1, “3Alpha-hydroxy-3beta-methoxymethyl-substituted steroids and the use thereof” (Euro-Celtique S.A., priority 1999, published 2004).
pIC50: −log10 of the molar value.

Experiments:
rat = test: Rotorod test (sedative/hypnotic activity and duration of action); format: in vivo; conditions: for Duration of action: at lowest dose where all animals failed the rotorod test, time until all animals pass again; for TD50: Rattus norvegicus, 1 min, read-out: RR TD50 po; for Number of animals passing the rotorod test at 240 minutes: given for compounds with duration of action >240 minutes
Procedure: (§1) Table I below compares the in vitro potencies [ability to inhibit the binding of [^35S]-tert-butylbicyclophosphorothionate (TBPS)], rotorod TD50's (dose at which half of animals tested fail to stay on a rotating rod for 1 minute) and the length of time before all animals tested are able to pass rotorod test (duration of action) of closely structurally related pairs of 3β-methyl and 3β-methoxymethyl steroids. These methods for measuring in vitro and in vivo activity of compounds of the invention are fully described in U.S. Pat. No. 5,232,917. The TBPS assay gives the in vitro potency of compounds whereas the rotorod assay estimates the sedative/hypnotic activity of compounds. Since the duration of action of a compound is dependent on the dose and will be prolonged at higher doses, the duration of action was measured at the lowest dose where all of the animals failed the rotorod test. For compounds with duration of action >240 minutes, the number of animals passing the rotorod test at 240 minutes is given in parentheses. In each pair, the […] steroid has a biological duration action of greater than 240 minutes, while in each of the corresponding 3β-methoxymethyl steroids the duration of action is reduced to 180 minutes or less. […] Thus, specific 3β-methoxymethyl-substituted neuroactive steroids gave unique and unexpected pharmacokinetic profiles, making them especially useful as sedative/hypnotic and anesthetic agents.

[1] = target: [35S]-tert-butylbicyclophosphorothionate (TBPS) binding; test: Inhibition of [35S]-TBPS binding (in vitro potency); set-up: species or system rat; conditions: dose of steroid inhibiting 50% of specific binding of [35S]-TBPS
Procedure: as §1

[2] = po, po, dose at which half of animals fail to stay on a rotating rod for 1 minute

SMILES	Duration of action (rat) [min]	pIC50 [1]	TD50 (rat; [2]) [mg/kg]	melting point [°C]	Number of animals passing the rotorod test at 240 minutes (rat)	RR TD50 po (rat; po, dose at which half of animals fail to stay on a rotating rod for 1 minute) [mg/kg]
COCC1(O)CCC2(C)C(CCC3C2CCC2(C)C(C(=O)Cn4ccnc4)CCC32)C1 (stereo not drawn) [3α-Hydroxy-21-(1′-imidazolyl)-3β-methoxymethyl-5β-pregnan-20] [3α-Hydroxy-21-(1′-imidazolyl)-3β-methoxymethyl-5β-pregnan-20-one]	<180	6.76	–	–	–	–
COCC1(O)CCC2(C)C(CCC3C2CCC2(C)C(C(=O)Cn4ccnc4)CCC32)C1 (stereo not drawn) [3α-Hydroxy-21-(1′-imidazolyl)-3β-methoxymethyl-5β-pregnan-20-one]	–	–	30	–	–	–
COCC1(O)CCC2(C)C(CCC3C2CCC2(C)C(C(=O)CSc4nnc(N)s4)CCC32)C1 (stereo not drawn) [21-(5′-Amino-[1,3,4]-thiadiazol-2-ylthio)-3 α-hydroxy-3β-methoxymethyl-5α-pregnan-20-one]	<90	7.32	40	169 to 172	–	–
CC1(O)CCC2(C)C(CCC3C2CCC2(C)C(C(=O)COc4ccc5c(ccc[n+]5[O-])c4)CCC32)C1 (stereo not drawn) [3α-Hydroxy-3β-methyl-21-(quinolin-6-yloxy)-5α-pregnan-20-one, N-oxide, reference compound]	>240	7.34	15	–	(1/8	–
COCC1(O)CCC2(C)C(CCC3C2CCC2(C)C(C(=O)Cn4ncnn4)CCC32)C1 (stereo not drawn) [3α-Hydroxy-3β-methoxymethyl-21-(2′-tetrazolyl)-5α-pregnan-20-one]	120	7.62	35	–	–	–
CC1(O)CCC2(C)C(CCC3C2CCC2(C)C(C(=O)Cn4ncnn4)CCC32)C1 (stereo not drawn) [3α-Hydroxy-3β-methyl-21-(2′-tetrazolyl)-5α-pregnan-20-one, reference compound]	>240	7.36	4.5	–	(0/8	–
CC1(O)CCC2(C)C(CCC3C2CCC2(C)C(C(=O)Cn4ccnc4)CCC32)C1 (stereo not drawn) [3α-Hydroxy-21-(1′-imidazolyl)-3β-methyl-5α-pregnan-20-one, reference compound]	>240	7.01	31	–	(3/8	–
COCC1(O)CCC2(C)C(CCC3C2CCC2(C)C(C(=O)COc4ccc5c(ccc[n+]5[O-])c4)CCC32)C1 (stereo not drawn) [3α-Hydroxy-3β-methoxymethyl-21-(quinolin-6-yloxy)-5α-pregnan-20-one, N-oxide]	84	7.60	29	–	–	–
COCC1(O)CCC2(C)C(CCC3C2CCC2(C)C(C(=O)Cn4ccnc4)CCC32)C1 (stereo not drawn) [3α-Hydroxy-21-(1′-imidazolyl)-3β-methoxymethyl-5α-pregnan-20] [3α-Hydroxy-21-(1′-imidazolyl)-3β-methoxymethyl-5α-pregnan-20-one]	140	6.86	–	–	–	28
